Laboratory results published in patent publication US10633635B2, “Methods for production of functional beta cells” (Janssen Biotech, Inc., priority 2016, dated 2020).
“Also recorded” adds a separate entry of the source. Structures can show the parent of a compound that is named as a salt.

Each compound was assayed on human islets (assay: Glucose-stimulated insulin secretion (perifusion, C-PEPTIDE ELISA)). Details: 16.7 mM D-glucose ± 100 ng/ml Exendin-4, FIG. 8D.
Type: cell-based
Protocol: For quantification of glucose-dependent insulin secretion, Stage 7 ALI clusters, Aggrewell™ clusters and matured human islets were characterized by a cell perifusion system (BioRep Technologies, Miami, Fla., Catalog No. PERI4-02). Briefly, to normalize insulin secretion to a baseline, ALI/Aggrewell™ clusters or human islets were transferred into warm (37° C.) Kreb's Buffer (Table IX). Cells were loaded into perifusion chambers (BioRep Technologies, Catalog No. PERI-CHAMBER), and were continuously perfused (flow rate of 100 μl/min) with […] sequential Kreb's buffers supplemented with either: (i) 3 mM D-glucose; (ii) 16.7 mM D-glucose±100 ng/ml Exendin-4 (“Ex4”); and (iii) 25 mM KCl with 3 mM D-glucose. Specific perifusion protocols are indicated in each figure. Perfusate samples were collected every minute, and C-PEPTIDE protein levels (units in ng/ml) detected by a C-PEPTIDE ELISA (Mercodia, Uppsala, Sweden, Catalog No. 10-1136-01).

Compound	amplitude of the GSIS response
Exendin-4: insulin secretagogue, 100 ng/ml in perifusion buffer (Sigma-Aldrich E7144)	did not increase the amplitude of the GSIS response

What follows are compounds tested on MAFA or UCN3 (assay: Small molecule screen at Stage 7: induction of MAFA or UCN3 expression). Details: Stage 7 at 20 mM D-glucose plus BME Vitamin supplement; 79 small molecules of Table XI.
Type: cell-based, human
Protocol: (§1) The following example is directed to identification of small molecules that can enhance the maturation status of a pancreatic beta cell, via increasing the gene expression of mature beta cell markers including MAFA (v-maf avian musculoaponeurotic fibrosarcoma oncogene homolog A) or UCN3 (urocortin 3). […] Y-compound was added to only during the first 24 hours post-seeding.
(§2) For FIGS. 1A to 1H the cultures were differentiated using the following protocol.
In general, the embodiments herein differentiate human pluripotent cells substantially as described above in Stages 1-7. For Stage 7, various small molecules were added and their effect was evaluated by quantitative real-time PCR. […] These small molecules were evaluated and 2 μM of each was added at Stage7.
(§3) Primer details are outlined in Table III.

Compound	expression of the MAFA or UCN3
Nc1ncn([C@@H]2O[C@H](CO)[C@@H](O)[C@H]2O)c(=O)n1 [5-Azacytidine]	induced expression
CC1=NN(c2ccc(C(=O)O)cc2)C(=O)C1=Cc1ccc(-c2cc(C)c(C)cc2[N+](=O)[O-])o1 [C646]	induced expression
O=C(O[C@@H]1Cc2c(O)cc(O)cc2O[C@@H]1c1cc(O)c(O)c(O)c1)c1cc(O)c(O)c(O)c1 [EGCG]	induced expression
O=c1c(O)c(-c2ccc(O)c(O)c2)oc2cc(O)ccc12 [Fisetin]	induced expression
COc1ccc(S(=O)(=O)ON=C2C=C(C)C(=O)C(C)=C2)cc1 [L002]	induced expression
Nc1nc(OCc2cc(Br)cs2)c2[nH]cnc2n1 [Lomeguatrib]	induced expression
O=C1c2c(O)ccc(O)c2C(=O)c2c(NCCNCCO)ccc(NCCNCCO)c21 [Mitoxantrone dihydrochloride]	induced expression
CC(C)N(CCCNC(=O)Nc1ccc(C(C)(C)C)cc1)C[C@H]1O[C@@H](n2cc(Br)c3c(N)ncnc32)[C@H](O)[C@@H]1O [SGC0946]	induced expression
Cc1cc(Nc2ccc(NC(=O)c3ccc(Nc4ccnc5ccccc45)cc3)cc2)nc(N)n1 [SGI 1027]	induced expression
Cn1nnc2c(C(N)=O)ncn2c1=O [Temozolomide]	induced expression
O=c1ncccn1[C@@H]1O[C@H](CO)[C@@H](O)[C@H]1O [Zebularine]	induced expression

Each compound was assayed on MAFA (assay: Small molecule screen: qRT-PCR of MAFA expression at Stage 7 in H1-hESC-derived ALI clusters). Details: 2 μM small molecule added at Stage 7; S7D7 ALI clusters; quantitative real-time PCR; FIGS. 1A-1D.
Type: cell-based, human
Protocol: as §1, §2
(§4) In general, the embodiments herein differentiate human pluripotent cells substantially as described above in Stages 1-7. For Stage 7, various small molecules were added and their effect was evaluated by quantitative real-time PCR. These small molecules were evaluated and 2 μM of each was added at Stage7.
as §3

Compound	expression of MAFA as compared to S6D7, or untreated or DMSO treated cultures at Stage 7
COc1cc2c(cc1OCCCN1CCCC1)N=C(N)C21CCC1 [A366]	significantly upregulated
O=c1cc(N2CCNCC2)oc2c(-c3ccccc3)cccc12 [LY303511]	significantly upregulated
Cn1c(/C=C/C(=O)NO)ccc1/C=C/C(=O)c1cccc(F)c1 [MC1568]	significantly upregulated
Cc1cc(/N=N/c2ccc(S(=O)(=O)Nc3ccccn3)cc2)c(N)cc1O [MS436]	significantly upregulated
CC(=O)NCC(=O)N1[C@@H]2CC[C@H]1c1ccc(Nc3ncc(C(F)(F)F)c(NC4CCC4)n3)cc12 [PF03814735]	significantly upregulated
COc1ccccc1S(=O)(=O)Nc1ccc2c(c1)CN(C)C(=O)N2 [PFI1]	significantly upregulated
CCn1c(-c2nonc2N)nc2cncc(CNC3CCNCC3)c21 [SB747651A dihydrochloride]	significantly upregulated
O=C(CCl)Nc1ccc(S(=O)(=O)c2ccc(NC(=O)CCl)cc2)cc1 [TC-E5003]	significantly upregulated
COc1cc2c(NC3CCN(C(C)C)CC3)nc(C3CCCCC3)nc2cc1OCCCN1CCCC1 [UNC0638]	significantly upregulated
COc1cc2c(NC3CCN(C(C)C)CC3)nc(N3CCC(F)(F)CC3)nc2cc1OCCCN1CCCC1 [UNC0642]	significantly upregulated
COc1cc2c(NC3CCN(C4CCCCC4)CC3)nc(N3CCCN(C(C)C)CC3)nc2cc1OCCCN1CCCCC1 [UNC0646]	significantly upregulated
COc1cc2c(Nc3ccc(NC(=O)c4ccccc4)cc3)ncnc2cc1OCCCN1CCOCC1 [ZM447439]	significantly upregulated

What follows are compounds tested on UCN3 (assay: Small molecule screen: qRT-PCR of UCN3 expression at Stage 7 in H1-hESC-derived ALI clusters). Details: 2 μM small molecule added at Stage 7; S7D7 ALI clusters; quantitative real-time PCR; FIGS. 1E-1H.
Type: cell-based, human
Protocol: as §1, §2, §4, §3

Compound	expression of UCN3 as compared to S6D7, or untreated or DMSO treated cultures at Stage 7
Nc1ncn([C@@H]2O[C@H](CO)[C@@H](O)[C@H]2O)c(=O)n1 [5-Azacytidine]	significantly upregulated; also recorded: increased
CC(=O)Nc1ccc(C(=O)Nc2ccccc2N)cc1 [CI994]	significantly upregulated; also recorded: increased
O=C(CCCCCCC(=O)Nc1cccnc1)NO [Pyroxamide]	significantly upregulated; also recorded: increased

Same assay, conditions: Stage 7 no ALK5, low T3, ZM, H, NAC, FI, BLAR001; 5 μM AZT; 1 μM or 10 μM DEZA; S7D7 ALI clusters; FIG. 2B

Compound	UCN3 up-regulation during Stage 7
Nc1nccc2c1ncn2[C@@H]1C=C(CO)[C@@H](O)[C@H]1O [3-Deazaneplanocin A]	but not UCN3
Nc1ncn([C@@H]2O[C@H](CO)[C@@H](O)[C@H]2O)c(=O)n1 [5-Azacytidine]	up-regulator

Each compound was assayed on MAFA (assay: Small molecule screen: qRT-PCR of MAFA expression at Stage 7 in H1-hESC-derived ALI clusters). Details: Stage 7 no ALK5, low T3, ZM, H, NAC, FI, BLAR001; 5 μM AZT; 1 μM or 10 μM DEZA; S7D7 ALI clusters; FIG. 2A.
Type: cell-based, human

Compound	MAFA up-regulation during Stage 7
Nc1nccc2c1ncn2[C@@H]1C=C(CO)[C@@H](O)[C@H]1O [3-Deazaneplanocin A]	effective up-regulator of MAFA

The compounds below were run on INHBB (assay: not given). Details: S7D7 ALI clusters; 10 μM ALK5 inhibitor II in Stage 7; FIG. 3A.

Compound	INHBB expression relative to human islets
Cc1cccc(-c2n[nH]cc2-c2ccc3ncccc3n2)n1 [ALK5 inhibitor II, 2-(3-(6-Methylpyridin-2-yl)-1H-pyrazol-4-yl)-1,5-naphthyridine]	enriched above the expression seen in human islets
